The subject of assay [1] is Pseudomonas aeruginosa. The experiment in a line: Antimicrobial activity against Pseudomonas aeruginosa PAO1 measured after 24 hrs by CLSI protocol based microdilution method. It is filed as functional. On the technique in general: Broth dilution looks for growth in wells or tubes with falling amounts of substance.
Assay [2] concerns Enterococcus faecalis. The experiment in a line: Antimicrobial activity against Enterococcus faecalis ATCC29212 measured after 24 hrs by CLSI protocol based microdilution method. The format is functional.
The subject of assay [3] is Acinetobacter baumannii. Put plainly: Antimicrobial activity against Acinetobacter baumannii ATCC19606 measured after 24 hrs by CLSI protocol based microdilution method. It is filed as functional.
Assay [4] relates to Staphylococcus aureus. The experiment in a line: Antimicrobial activity against […] Staphylococcus aureus USA300 measured after 24 hrs by CLSI protocol based microdilution method. The format is functional.
Assay [5] deals with T1, Enoyl-[acyl-carrier-protein] reductase [NADPH] FabI (Staphylococcus aureus) (UniProt Q6GI75).
T1 sequence (whole entry): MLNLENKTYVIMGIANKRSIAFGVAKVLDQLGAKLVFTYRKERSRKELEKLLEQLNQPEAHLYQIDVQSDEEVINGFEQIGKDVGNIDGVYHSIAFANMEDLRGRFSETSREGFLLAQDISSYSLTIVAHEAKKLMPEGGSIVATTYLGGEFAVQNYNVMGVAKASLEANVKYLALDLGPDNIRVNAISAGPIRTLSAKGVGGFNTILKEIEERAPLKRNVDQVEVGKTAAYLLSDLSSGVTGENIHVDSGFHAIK
The experiment in a line: Inhibition of N-terminal his 6 tagged Staphylococcus aureus Fabi (1 to […] residues) expressed in Escherichia coli BL21 at 1 uM incubated for 30 mins in presence of NADPH by fluorescence based microplate reader analysis relative to control.

Assay [6] deals with T1, Enoyl-[acyl-carrier-protein] reductase [NADPH] FabI (Staphylococcus aureus). Put plainly: Inhibition of N-terminal his 6 tagged Staphylococcus aureus Fabi (1 to […] residues) expressed in Escherichia coli BL21 at 10 uM incubated for 30 mins in presence of NADPH by fluorescence based microplate reader analysis relative to control.
For assay [7], the system named is Staphylococcus aureus. The experiment in a line: Antimicrobial activity against […] Staphylococcus aureus ATCC43300 measured after 24 hrs by CLSI protocol based microdilution method. The format is functional.
Assay [8] deals with Escherichia coli. Put plainly: Antimicrobial activity against Escherichia coli ATCC25922 measured after 24 hrs by CLSI protocol based microdilution method. The format is functional.
Assay [9] deals with Enterococcus faecium. The experiment in a line: Antimicrobial activity against Enterococcus faecium ATCC19434 measured after 24 hrs by CLSI protocol based microdilution method. It is filed as functional.
Assay [10] relates to Candida albicans. The experiment in a line: Antimicrobial activity against Candida albicans SC5314 measured after 48 hrs by CLSI protocol based microdilution method. The format is functional.
Assay [11] concerns Staphylococcus aureus. The experiment in a line: Antimicrobial activity against methicillin-susceptible Staphylococcus aureus ATCC25923 measured after 24 hrs by CLSI protocol based microdilution method. It is filed as functional.
Assay [12] concerns Staphylococcus aureus. Put plainly: Antimicrobial activity against […] Staphylococcus aureus ATCC33591 measured after 24 hrs by CLSI protocol based microdilution method. The format is functional.
The test system of assay [13] is Staphylococcus aureus. The experiment in a line: Antimicrobial activity against […] Staphylococcus aureus NRS271 measured after 24 hrs by CLSI protocol based microdilution method. The format is functional.
For assay [14], the system named is Staphylococcus aureus. Put plainly: Antimicrobial activity against methicillin-susceptible Staphylococcus aureus ATCC29213 measured after 24 hrs by CLSI protocol based microdilution method. The format is functional.

Molecules are shown by their SMILES.

As usually defined, the MIC is the lowest concentration that inhibits growth of the organism. A higher MIC goes with a less susceptible organism. The term inhibition denotes the share of the control response that was lost under treatment. In the case of `Cn1c(C2CC(=O)N(c3ccccc3-c3ccccc3)C2)nc2ccccc21` (stereo not drawn), the MIC in assay [1], in assay [2], in [3], in assay [4], in [7] and in assay [8] was greater than 32 µg/mL in each case. Besides, the MIC in assay [9], in assay [10], in assay [11], in assay [12], in assay [13] and in assay [14] was greater than 32 µg/mL in each case. Besides, the inhibition came to 2.3% in assay [5] and 5.8% in assay [6].

As for `Cn1c(C2CC(=O)N(c3ccc(N4CCOCC4)cc3)C2)nc2ccccc21` (stereo not drawn), the minimal inhibitory concentration (MIC) in assay [1], in [2], in assay [3], in assay [4], in assay [7] and in assay [8] was greater than 32 µg/mL in each case. Moreover, the MIC in [9], in assay [10], in assay [11], in [12], in assay [13] and in assay [14] was greater than 32 µg/mL in each case. Besides, the inhibition in assay [5] came to 8.2%; in assay [6] it was 7.7%.

For the compound `Cc1cccc(NC(=O)CCc2nc3ccccc3n2C)c1C`, the MIC in assay [1], in assay [2], in assay [3], in [4], in [7] and in [8] was greater than 32 µg/mL throughout. Besides, the MIC in assay [9], in [10], in assay [11], in [12], in [13] and in [14] was greater than 32 µg/mL throughout. In addition, the inhibition in assay [5] is 4.5%; in assay [6], 10%.

On to `Cn1c(CCC(=O)NCCC(=O)NCc2ccccc2)nc2ccccc21`, for which the MIC in [1], in [2], in assay [3], in assay [4], in assay [7] and in assay [8] was greater than 32 µg/mL throughout. The MIC in [9], in assay [10], in [11], in assay [12], in assay [13] and in assay [14] was greater than 32 µg/mL in each case. Also, the inhibition in assay [5] was determined as 7.5%; in assay [6], 24.7%.

For the compound `Cn1c(C2CC(=O)N(c3ccc4ncsc4c3)C2)nc2ccccc21` (stereo not drawn), the MIC in [1], in [2], in [3], in assay [4], in [7] and in assay [8] was greater than 32 µg/mL in each case. In addition, the minimal inhibitory concentration (MIC) in assay [9], in assay [10], in [11], in assay [12], in assay [13] and in [14] was greater than 32 µg/mL in each case. In addition, the values for the inhibition in assay [5] and in [6] were 4.1% and 43.4%, respectively.

For the compound `Cn1c(C2CC(=O)N(c3ccccc3)C2)nc2ccccc21` (stereo not drawn), the MIC in assay [1], in [2], in [3], in [4], in assay [7] and in assay [8] was greater than 32 µg/mL in each case. The minimum inhibitory concentration (MIC) in assay [9], in assay [10], in assay [11], in assay [12], in assay [13] and in [14] was greater than 32 µg/mL throughout. Also, the figures for the inhibition in [5] and in assay [6] were 8.9% and 56.2%, respectively.

Consider `Cn1c(C(=O)Nc2cccc(C(=O)NCc3ccccc3)c2)nc2ccccc21`, for which the minimum inhibitory concentration (MIC) in assay [1], in assay [2], in [3], in assay [4], in assay [7] and in assay [8] was greater than 32 µg/mL in each case. The minimal inhibitory concentration (MIC) in assay [9], in assay [10], in assay [11], in [12], in assay [13] and in assay [14] was greater than 32 µg/mL each time. For the same compound, the inhibition stood at 6.8% in assay [5] and 4% in assay [6].

For `Cc1cccc(C(=O)NCCNC(=O)CCc2nc3ccccc3n2C)c1C`, the MIC in [1], in [2], in assay [3], in assay [4], in [7] and in assay [8] was greater than 32 µg/mL each time. Further, the minimum inhibitory concentration (MIC) in assay [9], in assay [10], in assay [11], in assay [12], in [13] and in assay [14] was greater than 32 µg/mL throughout. Moreover, the figures for the inhibition in assay [5] and in assay [6] were 5.2% and 25.6%, respectively.

As for `Cn1c(C2CC(=O)N(Cc3ccccc3)C2)nc2ccccc21` (stereo not drawn), the MIC in assay [1], in assay [2], in [3], in assay [4], in [7] and in [8] was greater than 32 µg/mL in each case. In addition, the minimum inhibitory concentration (MIC) in [9], in assay [10], in assay [11], in assay [12], in assay [13] and in assay [14] was greater than 32 µg/mL each time. In addition, the values for the inhibition in assay [5] and in assay [6] were 4.6% and 27.9%, respectively.

For the compound `Cn1c(C(=O)NCCC(=O)NCc2ccccc2)nc2ccccc21`, the minimum inhibitory concentration (MIC) in [1], in assay [2], in assay [3], in assay [4], in [7] and in assay [8] was greater than 32 µg/mL in each case. Moreover, the minimal inhibitory concentration (MIC) in [9], in assay [10], in [11], in [12], in assay [13] and in assay [14] was greater than 32 µg/mL in each case. Besides, the inhibition turned out to be 5.7% in [5] and 8.6% in assay [6].

For the compound `Cc1cccc(NC(=O)CCNC(=O)CCc2nc3ccccc3n2C)c1C`, the MIC in [1], in assay [2], in [3], in [4], in [7] and in assay [8] was greater than 32 µg/mL throughout. The minimal inhibitory concentration (MIC) in [9], in [10], in assay [11], in assay [12], in [13] and in assay [14] was greater than 32 µg/mL each time. Further, the inhibition in [5] stood at 6.9%; in [6], 33.2%.

As for `Cc1cccc(N2CCC(c3nc4ccccc4n3C)C2)c1C` (stereo not drawn), the minimum inhibitory concentration (MIC) in [1], in assay [2], in [3], in [4], in [7] and in [8] was greater than 32 µg/mL each time. In addition, the MIC in [9], in [10], in assay [11], in [12], in assay [13] and in assay [14] was greater than 32 µg/mL each time. Besides, the results for the inhibition in [5] and in assay [6] were 5.4% and 6.2%, respectively.
